Source: patent US20140134178A1, “PHOSPHORYLATION OF HISTONES AND USES THEREOF” (H. LEE MOFFITT CANCER CENTER AND RESEARCH INSTITUTE, priority 2012, published 2014)
“Also recorded” adds a separate entry of the source. One block for each compound: values may come before it.

Key:
[1] = system: pTyr37-H2B upstream of Hist1 cluster; experiment: Native ChIP-qPCR with pTyr37-H2B antibody, Site I and II upstream of Hist1 cluster, synchronized MEFs; type: cell-based, mouse; conditions: 6.30 hours post-release
Experimental: MEFs or H1975 were grown to 60-70% confluency in serum rich media. Thymidine is added at a final concentration of 2 mM and incubated for 17 hours. Cells were washed three times with phosphate buffered saline (PBS) and fresh serum containing media was added. After 10 hours, thymidine was added again to 2 mM final concentration. The cells were incubated for 17 hours and washed three times with PBS, replaced with serum containing media and time points were collected.
As a first step, extensive standardization of pTyr37-H2B antibodies were performed for its usage in ChIP. CHIP was performed using the Active Motif kit as per manufacturer's instructions. For ChIP synchronized MEFs were harvested at 0 and 6.30 hour post thymidine release (5×10^7 cells). Cells pellets were lysed in RLB buffer (Mahajan, N. P. et al. Proc. Nat. Acad. Sci. U.S.A. 104, 8438-8443 (2007); Mahajan, K. et al. Prostate 70, 1274-1285 (2010)) on ice for 10 minutes and sonicated for 25 seconds to shear DNA to an average length of 300-500 bp. The soluble chromatin was incubated overnight at 4° C. with pTyr37-H2B antibody. 20 μl of protein-A agarose was added and the beads were washed sequentially and DNA was eluted. […] Pellets were resuspended and the resulting DNA was quantified on a NanoDrop spectrophotometer. Extrapolation to the original chromatin volume allowed quantitation of the total chromatin yield. […]

[2] = system: core histone genes in Hist1 cluster; experiment: Quantitative RT-PCR of core histone transcripts in synchronized MEFs; type: cell-based, mouse; conditions: MK1775 0.625 μM, 14 hr; 8.30 hours post-release
Experimental: MEFs or H1975 were grown to 60-70% confluency in serum rich media. Thymidine is added at a final concentration of 2 mM and incubated for 17 hours. Cells were washed three times with phosphate buffered saline (PBS) and fresh serum containing media was added. After 10 hours, thymidine was added again to 2 mM final concentration. The cells were incubated for 17 hours and washed three times with PBS, replaced with serum containing media and time points were collected. All RT reactions were done (Mahajan, K. et al. PLoS One 5, e9646 (2010)) at the same time so that the same reactions could be used for all gene studies. For the construction of standard curves, serial dilutions of pooled sample RNA were used (50, 10, 2, 0.4, 0.08, and 0.016 ng) per reverse transcriptase reaction. One “no RNA” control and one “no Reverse Transcriptase” (No RT) controls were included for the standard curve. Three reactions were performed for each sample: 10 ng, 0.8 ng, and a No RT (10 ng) control. Real-time quantitative PCR analyses were performed using the ABI PRISM 7900HT Sequence Detection System (Applied Biosystems). […] Data were analyzed using SDS software version 2.2.2 and exported into an Excel spreadsheet. […]

[3] = system: NPAT and RNA polymerase II at site II; experiment: ChIP-qPCR with NPAT or RNA polymerase II antibodies at Site II, synchronized MEFs; type: cell-based, mouse; conditions: 6.30 hours post-release
Experimental: As a first step, extensive standardization of pTyr37-H2B antibodies were performed for its usage in ChIP. CHIP was performed using the Active Motif kit as per manufacturer's instructions. For ChIP synchronized MEFs were harvested at 0 and 6.30 hour post thymidine release (5×10^7 cells). Cells pellets were lysed in RLB buffer (Mahajan, N. P. et al. Proc. Nat. Acad. Sci. U.S.A. 104, 8438-8443 (2007); Mahajan, K. et al. Prostate 70, 1274-1285 (2010)) on ice for 10 minutes and sonicated for 25 seconds to shear DNA to an average length of 300-500 bp. The soluble chromatin was incubated overnight at 4° C. with pTyr37-H2B antibody. 20 μl of protein-A agarose was added and the beads were washed sequentially and DNA was eluted. Genomic DNA (Input) was prepared by treating aliquots of chromatin with RNase, proteinase-K followed by ethanol precipitation. Pellets were resuspended and the resulting DNA was quantified on a NanoDrop spectrophotometer. Extrapolation to the original chromatin volume allowed quantitation of the total chromatin yield. An aliquot of chromatin (20-30 μg) was pre-cleared with protein-A agarose beads (Invitrogen). Genomic DNA regions of interest were isolated using pTyr37-H2B antibody. […]
To understand the potential mechanism of repression of histone transcription the role of NPAT was assessed. […]

[4] = system: core histone genes located in Hist1 cluster; experiment: qRT-PCR of histone genes in synchronized cells (8-histone gene signature); type: cell-based; conditions: MK1775 0.6 uM, 14 hr; 8.30 hours post-release
Experimental: Human cells have 55 distinct histone genes each encoding a fraction of core histones. This study determined histone levels using 20 of these genes. In untreated cells, rapid decrease in transcripts of all of these histone genes was observed when RNA levels of 6.30 hours post-release samples (late S phase) were compared with 8.30 hours post-release (G2/M phase) samples (FIG. 33a-h).

[5] = system: WEE1 expressing cancer cell lines; conditions: cited from earlier work
[6] = system: cancers and cancer cell lines; conditions: cited from earlier work
Ack1 [7] = experiment: Ack1 phosphorylation of histone H3 at Tyr99 in ligand-treated cell lines; type: cell-based
From the text: The discovery was made that Ack1 phosphorylates histone H3 at tyrosine 99. To delineate functional consequences of H3 Ty99-phosphorylation, phospho-antibodies were raised. […] Thus, marking of chromatin with H3-Tyr99-phosphorylation within AR-target gene promoters may suppress repressive dimethylation leading to transcriptional activation in androgen-deprived environment of CRPC tumors. This study uncovers a previously unknown mechanism of regulation of pTyr267-AR-target gene expression, which can be therapeutically reversed by suppression of Ack1/AR/pTyr99-H3 signaling by AIM-100.

pTyr267-AR = experiment: ChIP-qPCR for pTyr267-AR binding to PSA, NKX3.1 and TMPRSS2 AREs in LAPC4 cells; type: cell-based; conditions: 0.8 μM, 16 hr
Experimental: LAPC4 cells were treated with DHT (5 nM, 16 hr), EGF (10 ng/ml, 1 hr), or EGF and AIM-100 (0.8 μM, 16 hr) and ChIP analysis for pTyr267-AR binding to the PSA, NKX3.1 and TMPRSS2 AREs was performed followed by qPCR. Ack1 inhibition by AIM-100 suppressed recruitment of pTyr-AR to PSA, NKX3,1 and TMPRSS2 promoters (FIGS. 8A-8C).

[8] = system: PSA, NKX3,1 and TMPRSS2 genes; experiment: Testosterone-independent expression of AR-target genes; type: cell-based
[9] = system: LNCaP-caAck expressing cells; experiment: Prostate xenograft tumor growth, LNCaP-caAck cells in castrated nude male mice; type: in vivo; conditions: 4 mg/kg of body weight per injection, five times
Experimental: Castrated nude male mice were injected with LNCaP-caAck expressing cells. Mice were injected with AIM-100 (4 mg/kg of body weight per injection) on five times (n=8) and tumor volumes were measured.

Ack1 [10] = biological target: T1, Ack1 (Homo sapiens, UniProt Q07912, E346K); type: biochemical; conditions: 5 uM for 1 hour at 30° C.
T1 construct: HA; made in house
Experimental: To test whether Ack1 directly phosphorylates H4, in vitro kinase assay (Mahajan, K., et al. PLoS One 5, e9646 (2010)) was performed. […] HEK293 cells were treated with EGF or EGF+AIM-100 (5 uM, 14 hour) and lysates were immunoprecipitated with Ack1 antibodies followed by immunoblotting with H4 antibodies.

Xenopus laevis embryos = experiment: Xenopus embryo injection, gastrulation/epiboly phenotype
From the text: Table 4 provides the phenotype distribution for surviving embryos (raw data are identical to those in Table 3).

Ack1 [11] = biological target: T2, Ack1 (Homo sapiens, UniProt Q07912); type: cell-based; set-up: endogenous in cells; host or cells: LAPC4
Experimental: The prostate cancer derived cells, LAPC4 were treated with AIM-100 (7 uM, 16 hours). The equal amount of cell lysates were subjected to immunoblotting with H3K9me3 and histone H3 antibodies. […] The histone H3 antibodies were used as a control to indicate equal amount of protein.
LAPC4 cells were treated with EGF or EGF and AIM-100 and the lysates were immunoblotted with H3K9 dimethyl and H3K27 dimethyl antibodies.

Ack1 [12] = biological target: T2, Ack1; type: biochemical; set-up: endogenous in cells; host or cells: LAPC4; conditions: purified Ack1, H4 peptide, ELISA with pY88 antibodies
Experimental: WEE1 and Ack1 are two non-receptor tyrosine kinases or NRTKs that have known nuclear functions. To determine whether WEE1 and Ack1 can directly target H4 for Tyr88-phosphorylation, this study performed in vitro kinase assay. In brief, the Streptavidin coated 96-well plates (R&D systems) were incubated with biotinylated H4-derived peptide […] (SEQ ID NO: 64) for 1 hour. The plates were washed and the purified WEE1 or Ack1 were added in kinase buffer (20 mM HEPES, 150 mM NaCl, 0.5% Triton X-100, 10% Glycerol, phosphatase and protease inhibitors) containing ATP and MgCl2. After 2 hours of incubation, plates were washed with phosphate buffered saline containing 0.1% Tween 20 (PBST) and blocked in 3% BSA. The pY88-H4 antibodies (at 1:500 dilution) were added and incubated for 1 hour. Unbound antibodies were washed and HRP-conjugated anti-mouse secondary Antibodies (1:2000) were added. Magnitude of phosphorylation was detected using developer solution (OPD tablets, Sigma) and the plates were read at 450 nm. As a negative control, no kinase and no peptide reactions were used. The biotinylated phosphopeptide […]p[…] (SEQ ID NO: 65) was used as a positive control.

Ack1 [13] = biological target: T2, Ack1; experiment: H4 Tyr51-phosphorylation in EGF-treated HEK293T cells (IP/immunoblot); type: cell-based; set-up: endogenous in cells; host or cells: HEK293T; conditions: serum starved HEK293T, EGF+AIM-100
Experimental: To examine whether H4 is a Ack1 kinase substrate, cells were treated with EGF or EGF+Ack1 inhibitor, AIM-100 (Mahajan, K., et al. Prostate 70, 1274-1285 (2010)). Specifically, serum starved HEK293T were treated with EGF or EGF+AIM-100 and cells were harvested. […] Equal amounts of lysates were immunoblotted with H4 antibody or pTyr284-Ack1 antibody.

[14] = system: S. cerevisiae wildtype and H2BY40A mutants; experiment: Yeast spot growth assay on YPD plates with MMS; type: cell-based, Saccharomyces cerevisiae; conditions: in contrast to wild type cells, growth 72 h post-plating
Experimental: Wt and H2BY40A mutants were serially diluted and spotted on YPD plates in the absence or presence of MMS and growth was assessed 72 h post-plating.
To test whether excess of histones interfere with the ability of cells to repair DNA damage, S. cerevisiae wildtype (Wt) and H2BY40A mutants were exposed to DNA alkylating agent Methylmethane sulphonate (MMS). MMS inhibits DNA replication by methylating adenine or guanine in the DNA to cause base mispairing and stalling of replication forks, until the mutated/alkylated bases are excised out and replaced with the normal bases by the DNA alkyl transferases or the nucleotide repair machinery. […] Rad53 is a functional homologue of human Chk1 and Chk2 in budding yeast. It not only senses DNA replication stress during S phase but also acts as a surveillance machinery to detect excess histones that are not packaged into chromatin and targets them for degradation.

[15] = Table 3, antibodies 200 ng/em, AIM-100 200 pM/em

T2 sequence (Q07912 whole entry): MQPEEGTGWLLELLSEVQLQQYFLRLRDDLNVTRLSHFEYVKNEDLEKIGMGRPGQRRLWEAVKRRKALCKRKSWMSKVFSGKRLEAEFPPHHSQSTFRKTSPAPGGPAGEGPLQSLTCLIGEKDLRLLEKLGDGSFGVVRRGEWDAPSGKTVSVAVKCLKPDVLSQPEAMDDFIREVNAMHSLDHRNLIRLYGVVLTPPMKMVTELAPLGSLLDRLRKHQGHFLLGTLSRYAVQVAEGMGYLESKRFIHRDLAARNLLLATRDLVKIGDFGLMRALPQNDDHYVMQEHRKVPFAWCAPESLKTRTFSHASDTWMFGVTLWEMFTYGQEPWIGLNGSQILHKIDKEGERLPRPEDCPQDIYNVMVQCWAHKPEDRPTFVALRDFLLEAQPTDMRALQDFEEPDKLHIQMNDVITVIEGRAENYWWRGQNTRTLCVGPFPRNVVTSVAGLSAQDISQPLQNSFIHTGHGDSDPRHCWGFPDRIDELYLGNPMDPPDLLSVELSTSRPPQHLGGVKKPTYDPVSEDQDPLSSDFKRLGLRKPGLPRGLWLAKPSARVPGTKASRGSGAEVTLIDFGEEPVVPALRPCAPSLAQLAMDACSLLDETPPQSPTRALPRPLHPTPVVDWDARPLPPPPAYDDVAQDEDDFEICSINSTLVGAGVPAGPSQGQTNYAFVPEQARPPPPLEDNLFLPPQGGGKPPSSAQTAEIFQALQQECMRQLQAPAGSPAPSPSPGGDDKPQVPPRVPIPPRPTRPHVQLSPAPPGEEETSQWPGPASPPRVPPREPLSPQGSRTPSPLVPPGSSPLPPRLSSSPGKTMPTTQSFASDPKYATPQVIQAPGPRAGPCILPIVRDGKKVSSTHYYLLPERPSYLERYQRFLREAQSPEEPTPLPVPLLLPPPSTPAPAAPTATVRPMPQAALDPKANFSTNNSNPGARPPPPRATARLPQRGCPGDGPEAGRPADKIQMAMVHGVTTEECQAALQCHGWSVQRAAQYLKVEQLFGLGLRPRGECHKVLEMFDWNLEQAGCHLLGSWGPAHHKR
T1 sequence (Q07912 whole entry E346K): as the sequence (Q07912 whole entry) above, with E346K counted along it

- recruitment of NPAT and RNA polymerase II [3]: binding was detected
Compound: MK-1775
- occurrence of pTyr37-H2B at site I and II [1]: significantly reduced
- histone mRNA levels [2]: significant increase
- histone mRNA levels [4]: did not decrease
- apoptosis [5]: selectively induce apoptosis
- sensitization to DNA damaging agents such as gemcitabine, 5-fluorouracil [6]: able to sensitize

Compound: c1ccc(-c2oc3ncnc(NC[C@@H]4CCCO4)c3c2-c2ccccc2)cc1 [AIM-100]
- Ack1 phosphorylation of H3 at Tyr99 (Ack1 [7]): significantly compromised
- recruitment of pTyr-AR to PSA, NKX3,1 and TMPRSS2 promoters (pTyr267-AR): suppressed
- testosterone-independent expression of PSA, NKX3,1 and TMPRSS2 genes [8]: suppressed
- prostate xenograft tumor growth [9]: mitigated; also recorded: partially suppresses
- H4 pTyr51-phosphorylation (Ack1 [10]): abrogated
- abn/delay, gastrulation is abnormal or delayed (% of total embryos) (Xenopus laevis embryos; [15]): 6.7%
- abn/delay, gastrulation is abnormal or delayed (number of embryos) (Xenopus laevis embryos; [15]): 15
- dead (% of total embryos) (Xenopus laevis embryos; [15]): 43%
- dead (number of embryos) (Xenopus laevis embryos; [15]): 97
- epib blk, epiboly block phenotype (% of total embryos) (Xenopus laevis embryos; [15]): 29%
- epib blk, epiboly block phenotype (number of embryos) (Xenopus laevis embryos; [15]): 65
- epib red, partial phenotype (% of total embryos) (Xenopus laevis embryos; [15]): 8%
- epib red, partial phenotype (number of embryos) (Xenopus laevis embryos; [15]): 18
- norm. (% of total embryos) (Xenopus laevis embryos; [15]): 11%
- norm. (number of embryos) (Xenopus laevis embryos; [15]): 24
- Tot survivors (Xenopus laevis embryos; Table 4): 128
- abn/delay (% of surviving embryos) (Xenopus laevis embryos; Table 4, surviving embryos): (12%)
- abn/delay (number of surviving embryos) (Xenopus laevis embryos; Table 4, surviving embryos): 15
- epib blk (number of surviving embryos) (Xenopus laevis embryos; Table 4, surviving embryos): 65
- epib red (number of surviving embryos) (Xenopus laevis embryos; Table 4, surviving embryos): 18
- normal (% of surviving embryos) (Xenopus laevis embryos; Table 4, surviving embryos): 19%
- normal (number of surviving embryos) (Xenopus laevis embryos; Table 4, surviving embryos): 24
- mortality rates (Xenopus laevis embryos; by the onset of gastrulation, ~20 hours after microinjection at the 2-cell stage, 16° C.): 43-45%
- mortality at the onset of gastrulation versus controls (Xenopus laevis embryos; in vivo): Neither pTyr51-H4 nor AIM-100 lead to increased mortality
- timing or pattern of early cleavages (Xenopus laevis embryos; in vivo): did not alter
- epib blk, epiboly block/involution failure (% of surviving embryos) (Xenopus laevis embryos; surviving embryos): 51%
- epib red, partial reduced epiboly phenotype (% of surviving embryos) (Xenopus laevis embryos; surviving embryos): 14%
- epib blk, epiboly block/involution failure (% of surviving embryos) (Xenopus laevis embryos; surviving embryos, listed as AIM 100): (51%)
- H3K9 and K27 dimethylation and trimethylation (Ack1 [11]): increased
- H3 K9 trimethylation (Ack1 [11]; LAPC4 cells, 7 uM, 16 hours): increased; also recorded: significant increase
- H3K9 and K27 dimethylation (Ack1 [11]; LAPC4 cells, EGF and AIM-100): increased
- H4 Tyr88-phosphorylation (Ack1 [12]): significantly decreased; also recorded: significantly reduced
- H4 pTyr51-phosphorylation (Ack1 [13]): almost complete loss

Compound: COS(C)(=O)=O [MMS, Methylmethane sulphonate]
- sensitivity of H2BY40A mutants [14]: acute sensitivity; also recorded: marked sensitivity
